≈ marks a conversion by molar mass, not a printed value.
Legend:
Format in all cases: functional
Aliivibrio fischeri [1] = assay: Antimicrobial activity against Aliivibrio fischeri DSM507 assessed as growth inhibition incubated for 24 hrs by luminescence based assay; details: DSM507, 24 h
Aliivibrio fischeri [2] = assay: Antimicrobial activity against Aliivibrio fischeri DSM507 assessed as growth inhibition at 1 uM incubated for 24 hrs by luminescence based assay relative to control; details: DSM507, 24 h, read-out: GI
Aliivibrio fischeri [3] = assay: Antimicrobial activity against Aliivibrio fischeri DSM507 assessed as growth inhibition at 0.1 uM incubated for 24 hrs by luminescence based assay relative to control; details: DSM507, 24 h, read-out: GI

Compound | MIC (Aliivibrio fischeri [1]) [µM] | inhibition of growth at 1 µM (Aliivibrio fischeri [2]) [%] | inhibition of growth at 0.1 µM (Aliivibrio fischeri [3]) [%]
CC[C@H]1OC(=O)C[C@@H](O)[C@H](C)[C@@H](O[C@@H]2O[C@H](C)[C@@H](O)[C@H](N(C)C)[C@H]2O)[C@@H](CC=O)C[C@@H](C)C(=O)/C=C/C(C)=C/[C@@H]1CO[C@H]1O[C@@H](C)[C@H](O)[C@H](OC)[C@@H]1OC | 2 to 4 (≈ 1.54 to 3.09 µg/mL) | 84 | 57
CCCN(C(=O)c1ccccc1)C(C[C@H]1C[C@@H](C)C(=O)/C=C/C(C)=C/[C@H](CO[C@H]2O[C@@H](C)[C@H](O)[C@H](OC)[C@@H]2OC)[C@@H](CC)OC(=O)C[C@@H](O)[C@H](C)[C@H]1O[C@@H]1O[C@H](C)[C@@H](O)[C@H](N(C)C)[C@H]1O)C(=O)NC(C)(C)C (mixture of isomers) |  | 41 | 16
CC[C@H]1OC(=O)C[C@@H](O)[C@H](C)[C@@H](O[C@@H]2O[C@H](C)[C@@H](O)[C@H](N(C)C)[C@H]2O)[C@@H](CC(C(=O)NC(C)(C)C)N(CCCNC(=O)OCc2ccccc2)C(=O)c2ccccc2)C[C@@H](C)C(=O)/C=C/C(C)=C/[C@@H]1CO[C@H]1O[C@@H](C)[C@H](O)[C@H](OC)[C@@H]1OC (mixture of isomers) |  | 64 | 47
CC[C@H]1OC(=O)C[C@@H](O)[C@H](C)[C@@H](O[C@@H]2O[C@H](C)[C@@H](O)[C@H](N(C)C)[C@H]2O)[C@@H](CC(C(=O)NC(C)(C)C)N(C(=O)c2ccccc2)c2ccccc2)C[C@@H](C)C(=O)/C=C/C(C)=C/[C@@H]1CO[C@H]1O[C@@H](C)[C@H](O)[C@H](OC)[C@@H]1OC (mixture of isomers) |  | 36 | 22
CCCCNC(=O)C(C[C@H]1C[C@@H](C)C(=O)/C=C/C(C)=C/[C@H](CO[C@H]2O[C@@H](C)[C@H](O)[C@H](OC)[C@@H]2OC)[C@@H](CC)OC(=O)C[C@@H](O)[C@H](C)[C@H]1O[C@@H]1O[C@H](C)[C@@H](O)[C@H](N(C)C)[C@H]1O)N(C)C(=O)CCC (mixture of isomers) |  | 62 | 15
CC[C@H]1OC(=O)C[C@@H](O)[C@H](C)[C@@H](O[C@@H]2O[C@H](C)[C@@H](O)[C@H](N(C)C)[C@H]2O)[C@@H](CC(C(=O)NC(C)(C)C)N(C(=O)c2ccccc2)C(C)C)C[C@@H](C)C(=O)/C=C/C(C)=C/[C@@H]1CO[C@H]1O[C@@H](C)[C@H](O)[C@H](OC)[C@@H]1OC (mixture of isomers) |  | 79 | 54
CC[C@@H](C)CN(C(=O)c1ccccc1)C(C[C@H]1C[C@@H](C)C(=O)/C=C/C(C)=C/[C@H](CO[C@H]2O[C@@H](C)[C@H](O)[C@H](OC)[C@@H]2OC)[C@@H](CC)OC(=O)C[C@@H](O)[C@H](C)[C@H]1O[C@@H]1O[C@H](C)[C@@H](O)[C@H](N(C)C)[C@H]1O)C(=O)NC(C)(C)C (some centres undefined) |  | 52 | 25
CCC(=O)N(C(C)C)C(C[C@H]1C[C@@H](C)C(=O)/C=C/C(C)=C/[C@H](CO[C@H]2O[C@@H](C)[C@H](O)[C@H](OC)[C@@H]2OC)[C@@H](CC)OC(=O)C[C@@H](O)[C@H](C)[C@H]1O[C@@H]1O[C@H](C)[C@@H](O)[C@H](N(C)C)[C@H]1O)C(=O)NC(C)(C)C (mixture of isomers) |  | 71 | 38
CC[C@H]1OC(=O)C[C@@H](O)[C@H](C)[C@@H](O[C@@H]2O[C@H](C)[C@@H](O)[C@H](N(C)C)[C@H]2O)[C@@H](CC(C(=O)NC2CCCCC2)N(C(=O)c2ccccc2)C(C)C)C[C@@H](C)C(=O)/C=C/C(C)=C/[C@@H]1CO[C@H]1O[C@@H](C)[C@H](O)[C@H](OC)[C@@H]1OC (mixture of isomers) |  | 44 | 21
CC[C@H]1OC(=O)C[C@@H](O)[C@H](C)[C@@H](O[C@@H]2O[C@H](C)[C@@H](O)[C@H](N(C)C)[C@H]2O)[C@@H](CC(C(=O)NC(C)(C)C)N(CCCCN=[N+]=[N-])C(=O)c2ccccc2)C[C@@H](C)C(=O)/C=C/C(C)=C/[C@@H]1CO[C@H]1O[C@@H](C)[C@H](O)[C@H](OC)[C@@H]1OC (mixture of isomers) |  | 64 | 46
CCCC(=O)N(C(C)C)C(C[C@H]1C[C@@H](C)C(=O)/C=C/C(C)=C/[C@H](CO[C@H]2O[C@@H](C)[C@H](O)[C@H](OC)[C@@H]2OC)[C@@H](CC)OC(=O)C[C@@H](O)[C@H](C)[C@H]1O[C@@H]1O[C@H](C)[C@@H](O)[C@H](N(C)C)[C@H]1O)C(=O)NC(C)(C)C (mixture of isomers) |  | 83 | 43
CC[C@H]1OC(=O)C[C@@H](O)[C@H](C)[C@@H](O[C@@H]2O[C@H](C)[C@@H](O)[C@H](N(C)C)[C@H]2O)[C@@H](CC(C(=O)NC(C)(C)C)N(C)C(=O)c2ccccc2)C[C@@H](C)C(=O)/C=C/C(C)=C/[C@@H]1CO[C@H]1O[C@@H](C)[C@H](O)[C@H](OC)[C@@H]1OC (single isomer, unassigned) | 2 to 4 (≈ 1.98 to 3.96 µg/mL) |  | 
CC[C@H]1OC(=O)C[C@@H](O)[C@H](C)[C@@H](O[C@@H]2O[C@H](C)[C@@H](O)[C@H](N(C)C)[C@H]2O)[C@@H](CC(C(=O)NC(C)(C)C)N(CCNC(=O)OC(C)(C)C)C(=O)c2ccccc2)C[C@@H](C)C(=O)/C=C/C(C)=C/[C@@H]1CO[C@H]1O[C@@H](C)[C@H](O)[C@H](OC)[C@@H]1OC (mixture of isomers) |  | 56 | 34
CC[C@H]1OC(=O)C[C@@H](O)[C@H](C)[C@@H](O[C@@H]2O[C@H](C)[C@@H](O)[C@H](N(C)C)[C@H]2O)[C@@H](C[C@H](C(=O)NC(C)(C)C)N(C)C(C)=O)C[C@@H](C)C(=O)/C=C/C(C)=C/[C@@H]1CO[C@H]1O[C@@H](C)[C@H](O)[C@H](OC)[C@@H]1OC |  | 64 | 12
CC[C@H]1OC(=O)C[C@@H](O)[C@H](C)[C@@H](O[C@@H]2O[C@H](C)[C@@H](O)[C@H](N(C)C)[C@H]2O)[C@@H](CC(C(=O)NC(C)(C)C)N(CC)C(=O)c2ccccc2)C[C@@H](C)C(=O)/C=C/C(C)=C/[C@@H]1CO[C@H]1O[C@@H](C)[C@H](O)[C@H](OC)[C@@H]1OC (mixture of isomers) |  | 20 | 11
CC[C@H]1OC(=O)C[C@@H](O)[C@H](C)[C@@H](O[C@@H]2O[C@H](C)[C@@H](O)[C@H](N(C)C)[C@H]2O)[C@@H](C[C@@H](C(=O)NC(C)(C)C)N(C)C(C)=O)C[C@@H](C)C(=O)/C=C/C(C)=C/[C@@H]1CO[C@H]1O[C@@H](C)[C@H](O)[C@H](OC)[C@@H]1OC |  | 11 | 6
CCCC(=O)OC(C[C@H]1C[C@@H](C)C(=O)/C=C/C(C)=C/[C@H](CO[C@H]2O[C@@H](C)[C@H](O)[C@H](OC)[C@@H]2OC)[C@@H](CC)OC(=O)C[C@@H](O)[C@H](C)[C@H]1O[C@@H]1O[C@H](C)[C@@H](O)[C@H](N(C)C)[C@H]1O)C(=O)NC(C)(C)C (some centres undefined) |  | 90 | 58
CCCC(=O)N(C)C(C[C@H]1C[C@@H](C)C(=O)/C=C/C(C)=C/[C@H](CO[C@H]2O[C@@H](C)[C@H](O)[C@H](OC)[C@@H]2OC)[C@@H](CC)OC(=O)C[C@@H](O)[C@H](C)[C@H]1O[C@@H]1O[C@H](C)[C@@H](O)[C@H](N(C)C)[C@H]1O)C(=O)NC(C)(C)C (mixture of isomers) |  | 73 | 26
CC[C@H]1OC(=O)C[C@@H](O)[C@H](C)[C@@H](O[C@@H]2O[C@H](C)[C@@H](O)[C@H](N(C)C)[C@H]2O)[C@@H](CC(C(=O)NC(C)(C)C)N(C)C(=O)c2ccccc2)C[C@@H](C)C(=O)/C=C/C(C)=C/[C@@H]1CO[C@H]1O[C@@H](C)[C@H](O)[C@H](OC)[C@@H]1OC (mixture of isomers) |  | 99 | 69
CCCCNC(=O)C(C[C@H]1C[C@@H](C)C(=O)/C=C/C(C)=C/[C@H](CO[C@H]2O[C@@H](C)[C@H](O)[C@H](OC)[C@@H]2OC)[C@@H](CC)OC(=O)C[C@@H](O)[C@H](C)[C@H]1O[C@@H]1O[C@H](C)[C@@H](O)[C@H](N(C)C)[C@H]1O)N(C(=O)c1ccccc1)C(C)C (mixture of isomers) |  | 57 | 31
CC[C@H]1OC(=O)C[C@@H](O)[C@H](C)[C@@H](O[C@@H]2O[C@H](C)[C@@H](O)[C@H](N(C)C)[C@H]2O)[C@@H](CC(OC(=O)c2ccccc2)C(=O)NC(C)(C)C)C[C@@H](C)C(=O)/C=C/C(C)=C/[C@@H]1CO[C@H]1O[C@@H](C)[C@H](O)[C@H](OC)[C@@H]1OC (mixture of isomers) |  | 52 | 18
CC[C@H]1OC(=O)C[C@@H](O)[C@H](C)[C@@H](O[C@@H]2O[C@H](C)[C@@H](O)[C@H](N(C)C)[C@H]2O)[C@@H](CC(C(=O)NC(C)(C)C)N(CCCCN)C(=O)c2ccccc2)C[C@@H](C)C(=O)/C=C/C(C)=C/[C@@H]1CO[C@H]1O[C@@H](C)[C@H](O)[C@H](OC)[C@@H]1OC (mixture of isomers) |  | 36 | 6

Source: ChEMBL document CHEMBL4387762, “Multicomponent synthesis of α-acylamino and α-acyloxy amide derivatives of desmycosin and their activity against gram-negative bacteria” (2019)
